This is an account of results in patent US20230107538A1, “CYCLOALKYL-CONTAINING CARBOXYLIC ACIDS AND USES THEREOF” (LIMINAL BIOSCIENCES LIMITED, priority 2019, published 2023).

Data set [1] concerns the target T1, human PPARα ligand binding domain (LBD) (Homo sapiens, UniProt Q07869).
T1 construct: human PPARα (S167-Y468); expressed in transfected cells; host or cells: HEK293
T1 sequence (Q07869 167-468): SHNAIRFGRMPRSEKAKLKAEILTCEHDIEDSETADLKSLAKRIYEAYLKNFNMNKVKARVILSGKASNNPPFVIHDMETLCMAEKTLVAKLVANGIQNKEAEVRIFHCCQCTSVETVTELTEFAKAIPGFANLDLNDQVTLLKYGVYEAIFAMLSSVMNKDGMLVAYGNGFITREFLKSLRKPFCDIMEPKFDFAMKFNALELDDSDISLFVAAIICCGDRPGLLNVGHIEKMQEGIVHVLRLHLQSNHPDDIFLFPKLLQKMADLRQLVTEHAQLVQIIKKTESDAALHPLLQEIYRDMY
Put plainly: Cell-based GAL4 PPAR transactivation assay in HEK293 cells, PPARα. The following applies: 24 h. As to the method:
(§1) The peroxisome proliferator-activated receptors (PPARs), PPARα, PPARδ, and PPARγ are ligand-dependent transcription factors that control expression of several key metabolism-associated genes. The transcriptional activity of representative compounds of formula I to these receptors was assessed using a cell-based GAL4 transactivation assay in HEK293 cells transfected with either PPARα, PPARδ, or PPARγ ligand binding domain (LBD), and was compared to that of the full control agonists GW7647 (PPARα), GW0742 (PPARδ), and rosiglitazone (PPARγ).
(§2) Plasmids: The hinge region and ligand binding domain (LBD) from human PPARα (S167-Y468), PPARδ (S139-Y440) and PPARγ (S176-Y477) were PCR-amplified from a PPARα cDNA clone (cDNA Resource Center, http://www.cdna.org) or from PPARδ1 and PPARγ1 LBD gBlocks™ gene fragments (Integrated DNA Technologies). The PPAR LBD PCR products were inserted in frame with the GAL4 DNA binding domain in the pFN26A(BIND)-hRlu-neo Flexi vector (Promega) at SgfI and PmeI sites to generate GAL4-PPAR-Rluc.
(§3) Cell-based PPAR transactivation assay. HEK293 cells were co-transfected with pGL4.35[luc2P/9XGAL4UAS/Hygro] (Promega) and GAL4-PPAR-Rluc plasmids, and after 24 h of incubation were treated with compounds for 24 h. Luciferase activity was determined with the Dual Glo™ luciferase assay (Promega). Firefly luminescence was normalized to the constitutively expressed Renilla luminescence, and results expressed as fold induction of vehicle control or percentage of reference agonist maximal activity.

In data set [2] the target is T2, human PPARδ ligand binding domain (LBD) (Homo sapiens, UniProt Q03181).
T2 construct: PPARδ (S139-Y440); host or cells: HEK293
T2 sequence (Q03181 139-441 limits assumed): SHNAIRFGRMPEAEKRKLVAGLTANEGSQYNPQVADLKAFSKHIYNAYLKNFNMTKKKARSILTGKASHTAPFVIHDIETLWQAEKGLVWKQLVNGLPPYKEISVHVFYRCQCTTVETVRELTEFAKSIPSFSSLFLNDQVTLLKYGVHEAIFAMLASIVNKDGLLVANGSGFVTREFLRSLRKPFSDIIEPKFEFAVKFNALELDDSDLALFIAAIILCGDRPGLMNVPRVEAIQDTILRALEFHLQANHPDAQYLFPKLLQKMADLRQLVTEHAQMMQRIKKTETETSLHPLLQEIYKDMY
Put plainly: Cell-based GAL4 PPAR transactivation assay in HEK293 cells, PPARδ. The conditions noted are these: 24 h. As to the method:
as §1, §2, §3

Data set [3] concerns the target T3, human PPARγ ligand binding domain (LBD) (Homo sapiens, UniProt P37231).
T3 construct: PPARγ (S176-Y477); host or cells: HEK293
T3 sequence (P37231 176-477 isoform P37231-2): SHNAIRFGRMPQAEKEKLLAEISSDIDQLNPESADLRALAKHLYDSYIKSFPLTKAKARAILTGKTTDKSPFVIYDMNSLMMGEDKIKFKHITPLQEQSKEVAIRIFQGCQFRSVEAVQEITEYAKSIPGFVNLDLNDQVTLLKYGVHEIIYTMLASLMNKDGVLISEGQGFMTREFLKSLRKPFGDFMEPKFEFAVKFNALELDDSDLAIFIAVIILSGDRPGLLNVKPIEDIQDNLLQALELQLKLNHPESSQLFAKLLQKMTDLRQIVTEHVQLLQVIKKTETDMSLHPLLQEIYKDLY
Kind of data set: Cell-based GAL4 PPAR transactivation assay in HEK293 cells, PPARγ. The following applies: 24 h. The method, then: as §1, §2, §3

Take `CCCCCCCC1CC1C(=O)[O-].[Na+]` (stereo not shown): the “PPARα (GAL4 reporter) % efficacity relative to GW7647” value in data set [1] came out at 90%. Further, the “PPARδ (GAL4 reporter) % efficacity relative to GW0742” value in data set [2] was found to be 4%. Moreover, the “PPARγ (GAL4 reporter) % efficacity relative to rosiglitazone” value in data set [3] is listed as 16%.

`[2H]C1([2H])C(CCCCCC)C1CC(=O)[O-].[Na+]` (stereo not shown): the “PPARα (GAL4 reporter) % efficacity relative to GW7647” value in data set [1] was determined as 20%. In data set [2], the “PPARδ (GAL4 reporter) % efficacity relative to GW0742” value came out at 2%. Further, in data set [3], the “PPARγ (GAL4 reporter) % efficacity relative to rosiglitazone” value was 3%.

Consider `CCCCCCC1C(CC(=O)[O-])C1(Br)Br.[Na+]` (stereo not shown) [Compound II, Sodium 2-(2,2-dibromo-3-hexylcyclopropyl)acetate], for which the melting point is 108 to 111 °C.

As to `CCCCCCC1C(CC(=O)[O-])C1(C)C.[Na+]` (stereo not shown) [drawing 323], in data set [1], the “PPARα (GAL4 reporter) % efficacity relative to GW7647” value is given as 33%. The “PPARδ (GAL4 reporter) % efficacity relative to GW0742” value in data set [2] is listed as −6%. Further, the “PPARγ (GAL4 reporter) % efficacity relative to rosiglitazone” value in data set [3] is reported as 4%.

As for `CCCCCCC1CC1C(=O)C(=O)[O-].[Na+]` (stereo not shown), in data set [1], the “PPARα (GAL4 reporter) % efficacity relative to GW7647” value was found to be 34%. Further, in data set [2], the “PPARδ (GAL4 reporter) % efficacity relative to GW0742” value is listed as −3%. Moreover, in data set [3], the “PPARγ (GAL4 reporter) % efficacity relative to rosiglitazone” value was found to be 2%.

For `CC1(C)CC1CCCCC1CC1C(=O)[O-].[Na+]` (stereo not shown), the “PPARα (GAL4 reporter) % efficacity relative to GW7647” value in data set [1] is on record as 43%. Besides, in data set [2], the “PPARδ (GAL4 reporter) % efficacity relative to GW0742” value is on record as 5%. Also, the “PPARγ (GAL4 reporter) % efficacity relative to rosiglitazone” value in data set [3] is recorded as 5%.

Turning to `CC1(C)CC1CCCCC/C=C/C(=O)[O-].[Na+]` (stereo not shown), the “PPARα (GAL4 reporter) % efficacity relative to GW7647” value in data set [1] is listed as 10%. Further, the “PPARδ (GAL4 reporter) % efficacity relative to GW0742” value in data set [2] worked out at 30%. Moreover, the “PPARγ (GAL4 reporter) % efficacity relative to rosiglitazone” value in data set [3] was 1%.

For the compound `CCCCCCC1C(CC(=O)[O-])C1(C)C.[Na+]` (stereo not shown) [drawing 322], the “PPARα (GAL4 reporter) % efficacity relative to GW7647” value in data set [1] was found to be 91%. Further, the “PPARδ (GAL4 reporter) % efficacity relative to GW0742” value in data set [2] was determined as 2%. For the same compound, in data set [3], the “PPARγ (GAL4 reporter) % efficacity relative to rosiglitazone” value was determined as 8%.

By melting point is commonly meant the temperature, or range, at which the solid turns liquid.
